# Measured values as given in US12458622B2, “Methods of treatment of coronavirus-induced inflammation conditions” (priority 2020, dated 2025).
# Assays:
# [1] = system: HMC3 human microglia cells; test: MSD U-PLEX cytokine secretion induced by TNF-α; format: cell-based; set-up: increase in IL-1β secretion compared to untreated HMC3 cells / increase in IL-6 secretion compared to untreated HMC3 cells / increase in IL-8 secretion compared to untreated HMC3 cells / IFN-γ secretion: dose or concentration left out as unconfirmed; settings: for inhibition at 3 µM: Homo sapiens, HMC3
# Protocol: (§1) Human microglial cell line HMC3 (CRL-3304) was purchased from ATCC (American Type Culture Collection). HMC3 cell line was cultured in DMEM medium with 10% FBS, 1% L-glutamine, and 1% penicillin/streptomycin. Cells were maintained in 37° C. incubator at 5% CO2.
# (§2) HMC3 cells were resuspended, counted using the LUNA-II Automated Cell Counter, seeded in the 6-well plate (400 K cells/2 mL medium/well), and incubated overnight to allow cells to attach. The media and detached cells were removed next day. The cell layer was washed three times in PBS and once in serum- and phenolred-free DMEM (SPFM). […] The conditioned medium was collected and centrifuged at 1,000×RCF (g) for 5 min to pellet detached cells and large debris, which was subsequently passed through a 0.22 μm filter with PVDF membrane to remove smaller debris. Samples of the supernatant medium were put in a CoolRack (#07210041, Fisher Scientific) on dry ice for Snap-freezing and kept at −80° C. until use.
# (§3) Meso-scale U-PLEX plates that detect a cytokine panel including IL-1β, IL-2, IL-4, IL-6, IL-8, IL-10, IFN-γ, TNF-α, and a chemokine panel including IP-10/CXCL10, MCP-1/CCL2, MIP-1α/CCL3, MIP-1P/CCL4, Eotaxin/CCL11, were used as per manufacture's protocol. 25 μL of the conditioned medium was used in each well of the MSD plates to detect the analytes. The plates were then analyzed on an MSD QuickPlex SQ120 instrument.
# (§4) All the data were presented as mean±standard error from at least three times, each done in triplicate. The statistical significance between two groups was determined by Student's t test, whereas the comparisons of multiple groups were carried out by one-way ANOVA, followed by Bonferroni's post-test using GraphPad Prism 7 (GraphPad Software, Inc.). A probability value of * p<0.05 was considered to be significant.
# [2] = system: HMC3 human microglia cells; test: MSD U-PLEX chemokine secretion induced by TNF-α; format: cell-based; settings: 0.3 μg/mL TNF-α, 24 hours; for inhibition at 3 µM: Homo sapiens, HMC3
# Protocol: as §1, §2, §3, §4
# [3] = system: HMC3 human microglia cells; test: Cell viability assay by AO/PI stain; format: cell-based; settings: for microglia death: 300 ng/mL, 24 hr
# Protocol: as §1
# (§5) HMC3 cells were resuspended, counted using the LUNA-II Automated Cell Counter, seeded in the 6-well plate (300 K cells/2 mL medium/well), and incubated overnight to allow cells to attach. Cells were treated with TNF-α or IFN-γ at five different concentrations (0, 10, 30, 100, 300 ng/mL) for 24 hr to induce cell activation. The supernatant medium was completely aspirated and 1 mL of fresh DMEM was added to wash the cell layer to remove detached cells and debris. The attached cells were resuspended and washed with PBS. Cells were washed with FACS buffer (2% FBS in PBS) prior to incubation with Zombie Violet Fixable Viability Dye (#423114, Biolegend, 1:500 dilution) and Human Fe Receptor Blocking Solution (#422302, Biolegend, 1:20) diluted in FACS buffer at RT for 10 min in the dark. Cells were then washed with FACS buffer and incubated at RT for 20 min with the following cell-surface antibodies: FITC anti-MHC II (#361706, Biolegend), PerCP/Cy5.5 anti-CD11b (#301328, Biolegend), BV605 anti-CD40 (#334336, Biolegend), PE anti-CD86 (#374206, Biolegend), PE/Cy7 anti-CD163 (#326514, Biolegend), APC anti-CD206 (#321110, Biolegend), and PerCP/Cy5.5 anti-CD14 (#367110, Biolegend). All of the cell-surface antibodies were diluted 1:20 in FACS buffer. Cells were permeabilized using the Transcription Factor Fixation/Permeabilization Buffer Set (#424401, Biolegend). Then cells were incubated with the following intracellular antibodies: APC/Cy7 anti-CD68 (#333822, Biolegend), purified anti-IBA1 (#PA5-27436, Invitrogen), Goat anti-Rabbit-Alexa Fluor 647 (#A21245, Invitrogen), purified anti-GFAP (#644702, Biolegend), and Goat anti-Mouse-Alexa Fluor 488 (#11029, Invitrogen). All of the intracellular antibodies were diluted 1:100 in the Permeabilization buffer (lx). Cells were washed with Permeabilization buffer and fixed in Fixation Buffer (#420801, Biolegend). Flow cytometry was performed using the Attune NxT Acoustic Focusing Cytometer (Thermo Fisher Scientific). Analysis of flow cytometry data was performed via FCS Express 7 (DeNovo Software).
# Cell viability was assessed with a LUNA-FL Automated fluorescence cell counter. Viable nucleated cells show green fluorescence and dying nucleated cells show red fluorescence. 18 µL of sample was mixed with 2 μL Acridine Orange/Propidium Iodide (AO/PI) Stain.
# as §4
# H5N1 virus = settings: after H5N1 virus infection; cited from earlier work
# [4] = system: HMC3 human microglia cells; test: Flow cytometry of microglia activation biomarkers; format: cell-based; settings: 300 ng/mL, 24 hr
# Protocol: as §1
# as §5, with “Cells were washed with Permeabilization buffer and fixed in Fixation Buffer (#420801, Biolegend). Flow cytometry was performed using the Attune NxT Acoustic Focusing Cytometer (Thermo Fisher Scientific). Analysis of flow cytometry data was performed via FCS Express 7 (DeNovo Software).” left out
compound,measurement,setting,value
O=C(O)c1cc(=O)c2c(OCC(F)COc3cccc4oc(C(=O)O)cc(=O)c34)cccc2o1 [F-cromolyn],IFN-γ concentration,"[1]; 0.3 μM, TNF-α induced, 24 hr",decreased
same,IL-1β concentration,"[1]; 0.3 μM, TNF-α induced, 24 hr",decreased
same,IL-6 concentration,"[1]; 0.3 μM, TNF-α induced, 24 hr",decreased
same,IL-8 concentration,"[1]; 0.3 μM, TNF-α induced, 24 hr",decreased
same,inhibition at 3 µM,"[1]; TNF-α induced, 24 hr, read-out: inhibition of IFN-γ",> 50%
same,inhibition at 3 µM,"[1]; TNF-α induced, 24 hr, read-out: inhibition of IL-1β",> 50%
same,inhibition at 3 µM,"[1]; TNF-α induced, 24 hr, read-out: inhibition of IL-6",39.8%
same,inhibition at 3 µM,"[1]; TNF-α induced, 24 hr, read-out: inhibition of IL-8",27.9%
same,extracellular IP-10 (CXCL10),[2]; 0.3 μM,can inhibit
same,extracellular MCP-1 (CCL2),[2]; 0.3 μM,can inhibit
same,extracellular MIP-1α (CCL3),[2]; 0.3 μM,can inhibit
same,extracellular MIP-1β (CCL4),[2]; 0.3 μM,can inhibit
same,inhibition at 3 µM,[2]; read-out: inhibition of IP-10 (CXCL10),> 40%
same,inhibition at 3 µM,[2]; read-out: inhibition of MCP-1 (CCL2),> 40%
same,inhibition at 3 µM,[2]; read-out: inhibition of MIP-1α (CCL3),36%
same,inhibition at 3 µM,[2]; read-out: inhibition of MIP-1β (CCL4),> 40%
same,TNF-α induced cell death,"[3]; 0.3 μM, TNF-α 0.3 μg/mL",significantly reduced cell death
CN1CCC(=C2c3ccccc3CC(=O)c3sccc32)CC1 [ketotifen],lung injury,H5N1 virus,improved
"IFN-γ: recombinant human IFN-γ, used to activate HMC3 microglia",microglia death,[3],19.7%
same,expression of anti-inflammatory microglia biomarkers (CD163 and CD206),[4],no alteration
same,expression of inflammatory microglia biomarkers,[4],increased protein expression
TNF-α,IFN-γ secretion,[1]; 24 hours,caused the previously quiescent cells to secrete IFN-γ
same,increase in IL-1β secretion compared to untreated HMC3 cells,[1]; 24 hours,> 177 fold
same,increase in IL-6 secretion compared to untreated HMC3 cells,[1]; 24 hours,> 177 fold
same,increase in IL-8 secretion compared to untreated HMC3 cells,[1]; 24 hours,> 177 fold
same,microglia death,[3],15.6%
same,"cell death, share of the total population",[3]; TNF-α 0.3 μg/mL,approximately 20%
same,expression of inflammatory microglia biomarkers,[4],increases the expression
